The subject of test [1] is human tumor cell lines (HT29, MCF-7, HeLa, U2OS, and J6). The experiment in a line: Antiproliferative activity in the series of human tumor cell lines. Type of test: cell-based. The following applies: MTT; concentration range of 10–500 nM. On the procedure:
(§1) The human colorectal adenocarcinoma (Caco-2), human colorectal adenocarcinoma (HT29), normal human intestinal (I407), human cervical cancer (HeLa), human breast cancer (MCF7), human bone osteosarcoma (U2OS), and human acute T-cell leukemia (Jurkat J6) cell lines were purchased from American Type Culture Collection (ATCC, Manassas, VA, USA). Cells were cultured in RPMI 1640 medium (Labtek Eurobio, Milan, Italy), supplemented with 10% FCS (Euroclone, Milano, Italy) and 2 mM L-glutamine (Sigma-Aldrich, Milano, Italy), at 37 °C and in a 5% CO2 atmosphere. The compounds were dissolved in DMSO in a 30–40 mM stock solution. In cell treatments, the final DMSO concentration never exceeded 0.1%.
(§2) Cells were seeded in a 96-well culture plastic plate (Sarsted, Milan, Italy), at 5 × 10^4 cells/well and, after 24 h, were exposed to increasing concentrations of the different compounds (from 1 nM to 500 nM) dissolved in RPMI 1640 medium. An MTT assay was performed according to Micheletti et al..
(§3) The absorbance at 570 nm was measured using a multi-well plate reader (Tecan, Männedorf, Switzerland), and data were analyzed by Prism GraphPad 8 software and expressed as IC50 nM.

The next test concerns U2OS. The experiment in a line: MTT assay, U2OS cells. Format: cell-based. The following applies: Homo sapiens, means of four experiments, na = not active, read-out: In vitro cytotoxic activity (IC50), U2OS. The procedure: as §1, §2, §3
A further test deals with HT29. As to the kind of experiment: MTT assay, HT29 cells. Format: cell-based, human. The following applies: Homo sapiens, HT-29; MTT; means of four experiments; na = not active; read-out: In vitro cytotoxic activity (IC50), HT29. The procedure:
as §1, §2, §3

Another test concerns HeLa. The experiment in a line: MTT assay, HeLa cells. Format: cell-based. Particulars: Homo sapiens, means of four experiments, na = not active, read-out: In vitro cytotoxic activity (IC50), HeLa. On the procedure:
as §1, §2, §3
A general note: Tetrazolium assays rely on reduction of a dye to a coloured formazan, in cell work by metabolically active cells.

A further test has as its system HT29 cells. Further details: method as in PMID 14715257, PMID 22814230. Particulars: cited from earlier work.
Test [2] deals with histones H2/H3 and H4 of HT29 cells. More on the design: method as in PMID 15716589, PMID 22814230. The following applies: cited from earlier work.
The test system of another test is MCF7. The experiment in a line: MTT assay, MCF7 cells. Type of test: cell-based. Particulars: Homo sapiens, means of four experiments, na = not active, read-out: In vitro cytotoxic activity (IC50), MCF7. The procedure:
as §1, §2, §3

The test system of a further test is J6. As to the kind of experiment: MTT assay, Jurkat J6 cells. Type of test: cell-based. Particulars: Homo sapiens, means of four experiments, na = not active, read-out: In vitro cytotoxic activity (IC50), J6. On the procedure:
as §1, §2, §3

Test [3] concerns histone deacetylase HDAC1. More on the design: method as in PMID 14715257, PMID 15716589, PMID 16702808, PMID 17234448, PMID 22814230. Particulars: cited from earlier work.

As to `CCCCCCCCC(O[Si](C)(C)C(C)(C)C)C(CCCCCCCC(=O)OC)O[Si](C)(C)C(C)(C)C` (racemic) [Compound 10, Rac-erythro-methyl 9,10-bis((tert-butyldimethylsilyl)oxy)octadecanoate], the “antitumor activity across all cell lines tested” value in test [1] is “no activity”.
What is called IC50 is the concentration that inhibits the measured activity by half. For `CCCCCCCCC(O[Si](C)(C)C(C)(C)C)C(CCCCCCCC(=O)O)O[Si](C)(C)C(C)(C)C` (racemic) [Compound 13, Rac-erythro-9,10-bis((tert-butyldimethylsilyl)oxy)octadecanoic Acid], the IC50 came out at 0.04195 ± 0.00029 µM with U2OS, 0.0253 ± 0.00027 µM in the test with HT29 and 0.1318 ± 0.00021 µM in the test with HeLa. Moreover, the “antitumor activity across all cell lines tested” value in test [1] was “showed antitumor activity”.
In the case of `CCCCCCCCC[C@@H](O)CCCCCCCC(=O)O` [(R)-9-HSA, (R)-9-hydroxystearic acid], the “concentration inducing the same effect on the cell cycle (G0/G1 arrest)” value in the test with HT29 cells is listed as 50 µM. Also, in test [2], the “histone acetylation (free acid)” value is “induces hyperacetylation of histone H4”.
For the molecule `CCCCCCCCC[C@H](CCCCCCCC(=O)OC)O[Si](C)(C)C(C)(C)C` [Compound 3, Methyl (R)-9-((tert-butyldimethylsilyl)oxy)octadecanoate], the IC50 in the test with U2OS stood at 0.02933 ± 0.00023 µM; in the test on MCF7, 0.134 ± 0.00027 µM; with HT29, 0.08476 ± 0.0001 µM; with J6 it was 0.1516 ± 0.00031 µM; with HeLa it was 0.1337 ± 0.00032 µM. Moreover, the “antitumor activity across all cell lines tested” value in [1] is reported as “showed antitumor activity”.
As for `CCCCCCCCCC(O)CCCCCCCC(=O)O` (stereo not drawn) [Compound 9-HSA, 9-hydroxystearic acid], the “inhibition of histone deacetylase HDAC1” value in [3] is recorded as “selectively inhibits”. In addition, the “concentration inducing the same effect on the cell cycle (G0/G1 arrest)” value in the test on HT29 cells is recorded as 100 µM.

Source of the values: PMC11820896, “New Compounds with Enhanced Biological Activity Through the Strategic Introduction of Silylated Groups into Hydroxystearic Acids” (Molecules, 2025).
